row,SMILES,melting point
1,"COc1cc2[nH]c(N(C)Cc3cccc(C4=NCCO4)c3)nc(=O)c2c(OC)c1OC [Example 11, 2-{[3-(4,5-Dihydro-oxazol-2-yl)-benzyl]-methyl-amino}-5,6,7-trimethoxy-1H-quinazolin-4-one]",202.3 to 203.4 °C
2,"COc1cc2[nH]c(N(C)Cc3ccc(N4CCCC4=O)cc3)nc(=O)c2c(OC)c1OC [Example 12, 5,6,7-Trimethoxy-2-{methyl-[4-(2-oxo-pyrrolidin-1-yl)-benzyl]-amino}-1H-quinazolin-4-one]",195.9 to 197.4 °C
3,"C=CCN1Cc2ccc(CN(C)c3nc(=O)c4c(OC)c(OC)c(OC)cc4[nH]3)cc2C1 [Example 13, 2-[(2-Allyl-2,3-dihydro-1H-isoindol-5-ylmethyl)-methyl-amino]-5,6,7-trimethoxy-1H-quinazolin-4-one]",133.7 to 136.6 °C
4,"COc1cc2[nH]c(N(C)Cc3ccc(OCC(O)CO)cc3)nc(=O)c2c(C)c1OC (stereo not drawn) [Example 14, 2-{[4-(2,3-Dihydroxy-propoxy)-benzyl]-methyl-amino}-6,7-dimethoxy-5-methyl-1H-quinazolin-4-one]",199.7 to 201.9 °C
5,"COc1ccc(CN(C)c2nc(=O)c3c(C)c(OC)c(OC)cc3[nH]2)cc1OCCN(C)CCO [Example 16, 2-[(3-{2-[(2-Hydroxy-ethyl)-methyl-amino]-ethoxy}-4-methoxy-benzyl)-methyl-amino]-6,7-dimethoxy-5-methyl-1H-quinazolin-4-one]",144.8 to 146.2 °C
6,"COCCN1Cc2ccc(CN(C)c3nc(=O)c4c(OC)c(OC)c(OC)cc4[nH]3)cc2C1 [Example 18, 5,6,7-Trimethoxxy-2-{[2-(2-methoxy-ethyl)-2,3-dihydro-1H-isoindol-5-ylmethyl]-methyl-amino}-1H-quinazolin-4-one]",133.3 to 136.6 °C
7,"COCCN1Cc2ccc(CN(C)c3nc(=O)c4c(C)c(OC)c(OC)cc4[nH]3)cc2C1 [Example 19, 6,7-Dimethoxy-2-{[2-(2-methoxy-ethyl)-2,3-dihydro-1H-isoindol-5-ylmethyl]-methyl-amino}-5-methyl-1H-quinazolin-4-one]",173.3 to 177.9 °C
8,"COc1cc2[nH]c(N(C)Cc3cccc(N4CCC(OC)C4=O)c3)nc(=O)c2c(OC)c1OC (stereo not drawn) [Example 20, 5,6,7-Trimethoxy-2-{[3-(3-methoxy-2-oxo-prrolidin-1-yl)-benzyl]-methyl-amino}-1H-quinazolin-4-one]",90.2 to 94.7 °C
9,"CNCCc1ccc(CN(C)c2nc(=O)c3c(C)c(OC)c(OC)cc3[nH]2)cc1 [Example 23, 6,7-Dimethoxy-5-methyl-2-{methyl-[4-(2-methylamino-ethyl)-benzyl]-amino}-1H-quinazolin-4-onbe]",154.6 to 159 °C
10,"COc1cc2[nH]c(N(C)Cc3cccc(N4C[C@@H](O)CC4=O)c3)nc(=O)c2c(OC)c1OC [Example 24, 2-{[3-((S)-4-Hydroxy-2-oxo-pyrrolidin-1-yl)-benzyl]-methyl-amino}-5,6,7-trimethoxy-1H-quinazolin-4-one]",207.5 to 209.9 °C
11,"CCN(CCO)Cc1ccc(CN(C)c2nc(=O)c3c(C)c(OC)c(OC)cc3[nH]2)cc1 [Example 30, 2-[(4-{[Ethyl-(2-hydroxy-ethyl)-amino]-methyl}-benzyl)-methyl-amino]-6,7-dimethoxy-5-methyl-1H-quinazolin-4-one]",142 to 145 °C
12,"CCN(CCOC)Cc1ccc(CN(C)c2nc(=O)c3c(OC)c(OC)c(OC)cc3[nH]2)cc1 [Example 32, 2-[(4-{[Ethyl(2-methoxy-ethyl)-amino]-methyl}-benzyl)-methyl-amino]-5,6,7-trimethoxy-1H-quinazolin-4-one]",120 to 122.4 °C
13,"COc1cc2[nH]c(N(C)Cc3cccc(CN4CCC(O)CC4)c3)nc(=O)c2c(OC)c1OC [Example 39, 2-{[3-(4-Hydroxy-piperidin-1-ylmethyl)-benzyl]-methyl-amino}-5,6,7-trimethoxy-1H-quinazolin-4-one]",97.5 to 104.7 °C
14,"COc1cc2[nH]c(N(C)Cc3cccc(CN4CCC(O)CC4)c3)nc(=O)c2c(C)c1OC [Example 40, 2-{[3-(4-Hydroxy-piperidin-1-ylmethyl)-benzyl]-methyl-amino}-6,7-dimethoxy-5-methyl-1H-quinazolin-4-one]",159.2 to 159.6 °C
15,"CCNCc1cccc(CN(C)c2nc(=O)c3c(OC)c(OC)c(OC)cc3[nH]2)c1 [Example 43, 2-[(3-Ethylaminomethyl-benzyl)-methyl-amino]-5,6,7-trimethoxy-1H-quinazolin-4-one]",133.9 to 134.7 °C
16,"COc1cc2[nH]c(N(C)Cc3ccc4c(c3)CN(C)C4)nc(=O)c2c(OC)c1OC [Example 45, 5,6,7-Trimethoxy-2-[methyl-(2-methyl-2,3-dihydro-1H-isoindol-5-ylmethyl)-amino]-1H-quinazolin-4-one]",165.5 to 166.5 °C
17,"COc1cc2[nH]c(N(C)Cc3cccc(CN4CCCC4)c3)nc(=O)c2c(OC)c1OC [Example 46, 5,6,7-Trimethoxy-2-[methyl-(3-pyrrolidin-1-ylmethyl-benzyl)-amino]-1H-quinazolin-4-one]",127 to 129.9 °C
18,"COc1cc2[nH]c(N(C)Cc3cccc(CN4CCC4)c3)nc(=O)c2c(OC)c1OC [Example 47, 2-[(3-Azetidin-1-ylmethyl-benzyl)-methyl-amino]-5,6,7-trimethoxy-1H-quinazolin-4-one]",131.3 to 133.1 °C
19,"COc1cc2[nH]c(N(C)Cc3ccc(OCCCN(C)C)cc3)nc(=O)c2c(OC)c1OC [Example 48, 2-{[4-(3-Dimethylamino-propoxy)-benzyl]-methyl-amino}-5,6,7-trimethoxy-1H-quinazolin-4-one]",108 to 111 °C
20,"COc1cc2[nH]c(N(C)Cc3cccc(CN4CCC(O)C4)c3)nc(=O)c2c(OC)c1OC (stereo not drawn) [Example 51, 2-{[3-(3-Hydroxy-pyrrolidin-1-ylmethyl)-benzyl]-methyl-amino}-5,6,7-trimethoxy-1H-quinazolin-4-one]",174.3 to 176.4 °C

# Second part, the compound after the results:
row,melting point,SMILES
1,223.9 to 225.9 °C,"COc1cc2[nH]c(N(C)Cc3cccc(CN(C)S(C)(=O)=O)c3)nc(=O)c2c(C)c1OC [Example 17, N-(3-{[(6,7-Dimethoxy-5-methyl-4-oxo-1,4-dihydro-quinazolin-2-yl)-methyl-amino]-methyl}-benzyl)-N-methyl-methanesulfonamide]"
2,148.8 to 151 °C,"COc1cc2[nH]c(N(C)Cc3ccc(CN(C)S(C)(=O)=O)cc3)nc(=O)c2c(OC)c1OC [Example 21, N-Methyl-N-(4-{[methyl-(5,6,7-trimethoxy-4-oxo-1,4-dihydro-quinazolin-2-yl)-amino]-methyl}-benzyl)-methanesulfonamide]"
3,158.1 to 159.2 °C,"CCN(C)CCOc1ccc(CN(C)c2nc(=O)c3c(C)c(OC)c(OC)cc3[nH]2)cc1OC [Example 25, 2-({4-[2-(Ethyl-methyl-amino)-ethoxy]-3-methoxy-benzyl}-methyl-amino)-6,7-dimethoxy-5-methyl-1H-quinazolin-4-one]"
4,130 to 133.8 °C,"COc1cc2[nH]c(N(C)Cc3cccc(C(C)N(C)S(C)(=O)=O)c3)nc(=O)c2c(C)c1OC (stereo not drawn) [Example 26, N-[1-(3-{[(6,7-Dimethoxy-5-methyl-4-oxo-1,4-dihydro-quinazolin-2-yl)-methyl-amino]-methyl}-phenyl)-ethyl]-N-methyl-methanesulfonamide]"
5,230.8 to 232.5 °C,"COc1cc2[nH]c(N(C)Cc3cccc(N4C[C@@H](O)CC4=O)c3)nc(=O)c2c(C)c1OC [Example 27, 2-{[3-((S)-4-Hydroxy-2-oxo-pyrrolidin-1-yl)-benzyl]-methyl-amino}-6,7-dimethoxy-5-methyl-1H-quinazolin-4-one]"
6,172.4 to 173.2 °C,"CCN(C)CCc1ccc(CN(C)c2nc(=O)c3c(C)c(OC)c(OC)cc3[nH]2)cc1 [Example 28, 2-({4-[2-(Ethyl-methyl-amino)-ethyl]-benzyl}-methyl-amino)-6,7-dimethoxy-5-methyl-1H-quinazolin-4-one]"
7,168.9 to 169.8 °C,"CNCCOc1ccc(CN(C)c2nc(=O)c3c(C)c(OC)c(OC)cc3[nH]2)cc1OC [Example 29, 6,7-Dimethoxy-2-{[3-methoxy-4-(2-methylamino-ethoxy)-benzyl]-methyl-amino}-5-methyl-1H-quinazolin-4-one]"
8,198.5 to 199.5 °C,"COc1cc2[nH]c(N(C)Cc3ccc(OCCO)cc3)nc(=O)c2c(C)c1OC [Example 31, 2-{[4-(2-Hydroxy-ethoxy)-benzyl]-methylamino}-6,7-dimethoxy-5-methyl-1H-quinazolin-4-one]"
9,123.8 to 125.6 °C,"COc1cc2[nH]c(N(C)Cc3cccc(CN(C)CCO)c3)nc(=O)c2c(C)c1OC [Example 33, 2-[(3-{[(2-Hydroxy-ethyl)-methyl-amino]-methyl}-benzyl)-methyl-amino]-6,7-dimethoxy-5-methyl-1H-quinazolin-4-one]"
10,151.2 to 152.9 °C,"COc1cc2[nH]c(N(C)Cc3cccc(CN4CCC(OC)C4)c3)nc(=O)c2c(C)c1OC (stereo not drawn) [Example 37, 6,7-Dimetrhoxy-2-{[3-(3-methoxy-pyrrolidin-1-ylmethyl)-benzyl]-methyl-amino}-5-methyl-1H-quinazolin-4-one]"
11,214.9 to 224.8 °C,"COc1cc2[nH]c(N(C)Cc3ccc4c(c3)CN(C)C4)nc(=O)c2c(C)c1OC [Example 38, 6,7-Dimethoxy-5-methyl-2-[methyl-(2-methyl-2,3-dihydro-1H-isoindol-5-ylmethyl)-amino]-1H-quinazolin-4-one]"
12,148 to 149.8 °C,"COc1cc2[nH]c(N(C)Cc3cccc(CN4CCC(O)C4)c3)nc(=O)c2c(C)c1OC (stereo not drawn) [Example 49, 2-{[3-(3-Hydroxy-pyrrolidin-1-ylmethyl)-benzyl]-methyl-amino}-6,7-dimethoxy-5-methyl-1H-quinazolin-4-one]"
13,200.2 to 204.4 °C,"COc1cc2[nH]c(N(C)Cc3cccc(N=C4N(C)CCN4C)c3)nc(=O)c2c(C)c1OC [Example 50, 2-{[3-(1,3-Dimethyl-imidazolidin-2-ylidenmeamino)-benzyl]-methyl-amino}-6,7-dimethoxy-5-methyl-1H-quinazoline-4-one]"
